Assay results reported in patent US6818666B2, “Bi-aromatic compounds linked via a heteroethylene radical, and pharmaceutical and cosmetic compositions using them” (Galderma Research & Development, priority 1919, dated 2004).

Tested on: mouse embryonic teratocarcinoma F9 cells
Assay: differentiation test on mouse embryonic teratocarcinoma cells (F9), secretion of plasminogen activator
Assay type: cell-based
Settings: for AC50: concentration of the test product which produces half of the maximum amount of plasminogen activator secreted; for RAR-agonist character concluded from F9 differentiation results: conclusion drawn from the F9 AC50 results
Source text: Results of differentiation tests on mouse embryonic teratocarcinoma cells (F9) to identify the RAR-agonist molecules as described in Skin Pharmacol. 3, pp. 256-267, 1990.
After treatment with the compounds of the examples cited in the following table, the mouse embryonic teratocarcinoma F9 cells differentiate into endodermal cells. This differentiation is characterized by the secretion of the plasminogen activator into the culture medium.
The activity of the product is expressed by the AC50 value representing the concentration of the test product which produces half of the maximum amount of plasminogen activator secreted.

With `COC(=O)c1ccc(C#CSc2ccc3c(c2)C(C)(C)CCC3(C)C)cc1` [Compound 1, Methyl 4-(5,5,8,8,-tetramethyl-5,6,7,8-tetrahydro-2-nachthylsuphanylethynyl)-benzoate] the AC50 was 0.02 µM and the “RAR-agonist character concluded from F9 differentiation results” value was “RAR-agonist”.

`CC1(C)CCC(C)(C)c2cc(SC#Cc3ccc(C(=O)O)cc3)ccc21` [Compound 2, 4-(5,5,8,8-Tetramethyl-5,6,7,8-tetrahydro-2-naphthylsuphanylethynyl)benzoic acid] was tested, and the AC50 was 0.001 µM and the “RAR-agonist character concluded from F9 differentiation results” value was “RAR-agonist”.

With `COC(=O)c1ccc(C#C[Se]c2ccc3c(c2)C(C)(C)CCC3(C)C)cc1` [Compound 4, Methyl 4-(5,5,8,8-tetramethyl-5,6,7,8-tetrahydro-2-naphthylselanylethynyl)benzoate] the AC50 (Mus musculus, F9) was 0.004 µM and the “RAR-agonist character concluded from F9 differentiation results” value was “RAR-agonist”.

With `CC1(C)CCC(C)(C)c2cc([Se]C#Cc3ccc(C(=O)O)cc3)ccc21` [Compound 5, 4-(5,5,8,8-Tetramethyl-5,6,7,8-tetrahydro-2-naphthylselanylethynyl)benzoic acid] the AC50 (Mus musculus, F9) was 0.021 µM and the “RAR-agonist character concluded from F9 differentiation results” value was “RAR-agonist”.

In the case of `Cc1cc2c(cc1[Se]C#Cc1ccc(C(=O)O)c(O)c1)C(C)(C)CCC2(C)C` [Compound 16, 2-Hydroxy-4-(3,5,5,8,8-pentamethyl-5,6,7,8-tetrahydro-2-naphthylselanylethynyl)benzoic acid], the AC50 (Mus musculus, F9) is reported as 0.033 µM and the “RAR-agonist character concluded from F9 differentiation results” value is reported as “RAR-agonist”.

`Cc1cc2c(cc1[Se]C#Cc1ccc(C(=O)O)cn1)C(C)(C)CCC2(C)C` [Compound 18, 6-(3,5,5,8,8-Pentamethyl-5,6,7,8-tetrahydro-2-naphthylselanylethynyl)nicotinic acid] was tested, and the AC50 (Mus musculus, F9) was 0.034 µM and the “RAR-agonist character concluded from F9 differentiation results” value was “RAR-agonist”.
